# Data published in patent US4318916A, “Antibiotic PS-5 and derivatives having β-lactamase inhibitory activity and production thereof” (Sanraku-Ocean Co., Ltd., priority 1977, dated 1982).
# Like-named read-outs stand apart in the source and are kept apart here.
# Experiments:
# [1] = Solubility of antibiotic PS-5; format: physicochemical
# [2] = test system: Enterobacter aerogenes E-19; assay: MIC by broth dilution (Table 8); format: cell-based; conditions: Klebsiella aerogenes, E19, 20 h, betalactamase producer, read-out: Minimum inhibitory concentration
# Experimental: (§1) The MIC values of antibiotic PS-5 sodium salt were determined on various pathogenic microorganisms including resistant strains by the broth dilution method utilizing the BRAIN HEART INFUSION BROTH `Eiken` (EIKEN CHEMICAL CO., LTD.).
# (§2) The antibiotic PS-5 sodium salt was dissolved in BRAIN HEART INFUSION BROTH `Eiken` (EIKEN CHEMICAL CO., LTD.) (pH 7.0) at concentration in the range of 5-50 μg/ml, from which appropriate dilution series were made in the same liquid medium. The microorganisms listed in Table 8 were cultivated for 18 hours in BRAIN HEART INFUSION BROTH `Eiken` at 28° C. and inoculated into the said dilution series of antibiotic PS-5 at a final inoculum size of 1×10^5 cells/ml. The cultures were allowed to stand at 35° C. for 20 hours, and then the growth of the microorganisms was read at each dilution of antibiotic PS-5. The minimum inhibitory concentration (MIC) represents the smallest concentration of the antibiotic PS-5 (sodium salt) where no propagation of the relevant microorganism was visually confirmed. As the controls, two known beta-lactam antibiotics, cephaloridine and cefoxitin were dissolved in brain heart infustion broth at pH 7.0 at concentrations ranging from 1 μg/ml to 100 μ g/ml and then diluted to make several dilution series in the above mentioned liquid medium. These samples were treated as described above for the MIC determinations. In addition to the MIC values of antibiotic PS-5, those of cephaloridine and cefoxitin are included for reference.
# Escherichia coli K 12 = assay: MIC by broth dilution (Table 8); format: cell-based; conditions: K12, 20 h, read-out: Minimum inhibitory concentration
# Experimental: as §1, §2
# Enterobacter sp. E-8 = assay: MIC by broth dilution (Table 8); format: cell-based; conditions: SP.E8, 20 h, read-out: Minimum inhibitory concentration
# Experimental: as §1, §2
# [3] = test system: Enterobacter cloacae E-16; assay: MIC by broth dilution (Table 8); format: cell-based; conditions: E16, 20 h, betalactamase producer, read-out: Minimum inhibitory concentration
# Experimental: as §1, §2
# Proteus rettgeri P-7 = assay: MIC by broth dilution (Table 8); format: cell-based; conditions: Providencia rettgeri, P7, 20 h, resistant to gentamicin and tobramycin, read-out: Minimum inhibitory concentration
# Experimental: as §1, §2
# Serratia marcescens S-18 = assay: MIC by broth dilution (Table 8); format: cell-based; conditions: S18, 20 h, betalactamase producer, read-out: Minimum inhibitory concentration
# Experimental: as §1, §2
# Providencia sp. P-8 = assay: MIC by broth dilution (Table 8); format: cell-based; conditions: SP.P8, 20 h, resistant to kanamycin, gentamicin and tobramycin, read-out: Minimum inhibitory concentration
# Experimental: as §1, §2
# Proteus vulgaris P-5 [4] = assay: MIC by broth dilution (Table 8); format: cell-based; conditions: P5, 20 h, betalactamase producer, read-out: Minimum inhibitory concentration
# Experimental: as §1, §2
# Proteus sp. P-22 = assay: MIC by broth dilution (Table 8); format: cell-based; conditions: 20 h, read-out: Minimum inhibitory concentration
# Experimental: as §1, §2
# [5] = test system: Staphylococcus aureus Russell; assay: MIC by broth dilution (Table 8); format: cell-based; conditions: 20 h, read-out: Minimum inhibitory concentration
# Experimental: as §1, §2
# Proteus mirabilis P-6 = assay: MIC by broth dilution (Table 8); format: cell-based; conditions: P6, 20 h, resistant to kanamycin, gentamicin and tobramycin, read-out: Minimum inhibitory concentration
# Experimental: as §1, §2
# [6] = test system: Alcaligenes faecalis B-326; assay: MIC by broth dilution (Table 8); format: cell-based; conditions: B326, 20 h, read-out: Minimum inhibitory concentration
# Experimental: as §1, §2
# Citrobacter freundii E-9 [7] = assay: MIC by broth dilution (Table 8); format: cell-based; conditions: E9, 20 h, read-out: Minimum inhibitory concentration
# Experimental: as §1, §2
# [8] = test system: Klebsiella pneumoniae K-2; assay: MIC by broth dilution (Table 8); format: cell-based; conditions: K2, 20 h, betalactamase producer, read-out: Minimum inhibitory concentration
# Experimental: as §1, §2
# Serratia marcescens = assay: Potentiation disc assay with cephaloridine (Table 10); format: cell-based; conditions: for Inhibition zone With CER: 50 μg/ml cephaloridine in agar
# Experimental: (§3) (A) Ten milliliters of molten nutrient agar containing 50 μg/ml of penicillin G or cephaloridine, 0.8% of Kyokuto Nutrient Broth Powder and 1.0% of Difco Bacto-Agar (pH 7.0) were seeded with the beta-lactam-resistant, beta-lactamase-producing microorganisms indicated in Tables 9 and 10, and poured in a 9-cm Petri dish to provide the bio-assay agar plate. On this assay plate, 8-mm pulp discs containing 25 μl each of antibiotic PS-5 solutions at the indicated concentrations were placed and incubated at 35° C. for 18 hours before reading the inhibition zones. The control assay plate was similarly prepared without penicillin G nor cephaloridine. As reference antibiotics, penicillin G, ampicillin, oxacillin and cefazolin were disc-assayed under the same conditions.
# Proteus vulgaris P-5 [9] = assay: as above; format: cell-based; conditions: Proteus vulgaris P-5; for Inhibition zone With CER: 50 μg/ml cephaloridine in agar
# Experimental: as §3
# Citrobacter freundii E-9 [10] = assay: as above; format: cell-based; conditions: for Inhibition zone With CER: 50 μg/ml cephaloridine in agar
# Experimental: as §3
# Enterobacter sp. E-18 = assay: as above; format: cell-based; conditions: for Inhibition zone With CER: 50 μg/ml cephaloridine in agar
# Experimental: as §3
compound,measurement,setting,value
"CCC1C(=O)N2C(C(=O)O)=C(SCCNC(C)=O)CC12 (single isomer, unassigned) [Antibiotic PS-5]",Solubility in ethyl acetate and benzene,[1]; at pH above 4,substantially insoluble
same,Solubility in water,[1]; water at pH 6 to 9,soluble
same,MIC,[2],6.25 µg/mL
same,MIC,Escherichia coli K 12; Escherichia coli K 12,2.5 µg/mL
same,MIC,"Enterobacter sp. E-8; Enterobacter sp. E-8, betalactamase producer",3.13 µg/mL
same,MIC,[3],12.5 µg/mL
same,MIC,Proteus rettgeri P-7,3.13 µg/mL
same,MIC,Serratia marcescens S-18,6.25 µg/mL
same,MIC,Providencia sp. P-8,6.25 µg/mL
same,MIC,Proteus vulgaris P-5 [4],12.5 µg/mL
same,MIC,Proteus sp. P-22; Proteus sp. P-22,6.25 µg/mL
same,MIC,"[5]; Staphylococcus aureus Russell, PS-5 as sodium salt",0.31 µg/mL
same,MIC,Proteus mirabilis P-6,6.25 µg/mL
same,MIC,[6]; Alcaligenes faecalis B-326,0.78 µg/mL
same,MIC,"Citrobacter freundii E-9 [7]; Citrobacter freundii E-9, betalactamase producer",3.13 µg/mL
same,MIC,[8],3.13 µg/mL
same,zone of inhibition at 79.5 µg/mL,"Serratia marcescens; 18 h, PS-5 79.5 μg/ml, read-out: Inhibition zone Without CER",14.8 mm
same,zone of inhibition at 100 µg/mL,"Serratia marcescens; 18 h, PS-5 100 μg/ml, read-out: Inhibition zone Without CER",16.8 mm
same,zone of inhibition at 159 µg/mL,"Serratia marcescens; 18 h, PS-5 159 μg/ml, read-out: Inhibition zone Without CER",17 mm
same,zone of inhibition at 318 µg/mL,"Serratia marcescens; 18 h, PS-5 318 μg/ml, read-out: Inhibition zone Without CER",21 mm
same,Inhibition zone With CER,Serratia marcescens; PS-5 79.5 μg/ml,22.3 mm
same,Inhibition zone With CER,Serratia marcescens; PS-5 100 μg/ml,23.3 mm
same,Inhibition zone With CER,Serratia marcescens; PS-5 159 μg/ml,24.8 mm
same,Inhibition zone With CER,Serratia marcescens; PS-5 318 μg/ml,26.1 mm
same,zone of inhibition at 79.5 µg/mL,"Proteus vulgaris P-5 [9]; P5, 18 h, PS-5 79.5 μg/ml, read-out: Inhibition zone Without CER",12.5 mm
same,zone of inhibition at 100 µg/mL,"Proteus vulgaris P-5 [9]; P5, 18 h, PS-5 100 μg/ml, read-out: Inhibition zone Without CER",13.7 mm
same,zone of inhibition at 159 µg/mL,"Proteus vulgaris P-5 [9]; P5, 18 h, PS-5 159 μg/ml, read-out: Inhibition zone Without CER",15.2 mm
same,zone of inhibition at 318 µg/mL,"Proteus vulgaris P-5 [9]; P5, 18 h, PS-5 318 μg/ml, read-out: Inhibition zone Without CER",18.5 mm
same,Inhibition zone With CER,Proteus vulgaris P-5 [9]; PS-5 79.5 μg/ml,21.8 mm
same,Inhibition zone With CER,Proteus vulgaris P-5 [9]; PS-5 100 μg/ml,22.0 mm
same,Inhibition zone With CER,Proteus vulgaris P-5 [9]; PS-5 159 μg/ml,24.0 mm
same,Inhibition zone With CER,Proteus vulgaris P-5 [9]; PS-5 318 μg/ml,25.2 mm
same,zone of inhibition at 79.5 µg/mL,"Citrobacter freundii E-9 [10]; E9, 18 h, PS-5 79.5 μg/ml, read-out: Inhibition zone Without CER",16 mm
same,zone of inhibition at 100 µg/mL,"Citrobacter freundii E-9 [10]; E9, 18 h, PS-5 100 μg/ml, read-out: Inhibition zone Without CER",17.4 mm
same,zone of inhibition at 159 µg/mL,"Citrobacter freundii E-9 [10]; E9, 18 h, PS-5 159 μg/ml, read-out: Inhibition zone Without CER",17.4 mm
same,zone of inhibition at 318 µg/mL,"Citrobacter freundii E-9 [10]; E9, 18 h, PS-5 318 μg/ml, read-out: Inhibition zone Without CER",22.5 mm
same,Inhibition zone With CER,Citrobacter freundii E-9 [10]; PS-5 79.5 μg/ml,19.4 mm
same,Inhibition zone With CER,Citrobacter freundii E-9 [10]; PS-5 100 μg/ml,21.6 mm
same,Inhibition zone With CER,Citrobacter freundii E-9 [10]; PS-5 159 μg/ml,22.3 mm
same,Inhibition zone With CER,Citrobacter freundii E-9 [10]; PS-5 318 μg/ml,24.6 mm
same,Inhibition zone With CER,Enterobacter sp. E-18; PS-5 79.5 μg/ml,17.6 mm
same,Inhibition zone With CER,Enterobacter sp. E-18; PS-5 100 μg/ml,18.0 mm
same,Inhibition zone With CER,Enterobacter sp. E-18; PS-5 159 μg/ml,19.4 mm
same,Inhibition zone With CER,Enterobacter sp. E-18; PS-5 318 μg/ml,21.9 mm
same,zone of inhibition at 79.5 µg/mL,"Enterobacter sp. E-18; SP.E18, 18 h, PS-5 79.5 μg/ml, read-out: Inhibition zone Without CER",15.1 mm
same,zone of inhibition at 100 µg/mL,"Enterobacter sp. E-18; SP.E18, 18 h, PS-5 100 μg/ml, read-out: Inhibition zone Without CER",16.1 mm
same,zone of inhibition at 159 µg/mL,"Enterobacter sp. E-18; SP.E18, 18 h, PS-5 159 μg/ml, read-out: Inhibition zone Without CER",18.2 mm
same,zone of inhibition at 318 µg/mL,"Enterobacter sp. E-18; SP.E18, 18 h, PS-5 318 μg/ml, read-out: Inhibition zone Without CER",21 mm
"O=C(Cc1cccs1)N[C@@H]1C(=O)N2C(C(=O)[O-])=C(C[n+]3ccccc3)CS[C@H]12 [Cephaloridine, cephaloridine]",MIC,[2],> 100 µg/mL
same,MIC,Escherichia coli K 12; Escherichia coli,2.5 µg/mL
same,MIC,Enterobacter sp. E-8; Enterobacter,3.13 µg/mL
same,MIC,[3],> 100 µg/mL
same,MIC,Proteus rettgeri P-7,100 µg/mL
same,MIC,Serratia marcescens S-18,> 100 µg/mL
same,MIC,Providencia sp. P-8,> 100 µg/mL
same,MIC,Proteus vulgaris P-5 [4],> 100 µg/mL
same,MIC,Proteus sp. P-22,> 100 µg/mL
same,MIC,[5]; Staphylococcus aureus,0.125 µg/mL
same,MIC,Proteus mirabilis P-6,12.5 µg/mL
same,MIC,[6]; Alcaligenes faecalis,6.25 µg/mL
same,MIC,Citrobacter freundii E-9 [7]; Citrobacter freundii,> 100 µg/mL
same,MIC,[8],6.25 µg/mL
